# Test results taken from paper PMC4550849 (Scientific Reports, 2015).
# Experiments:
# [1] = system: C32 cells treated with diphtheria toxin; format: cell-based, human
# [2] = system: anthrax toxin (LF + PA) lethality; design: species or system Sprague-Dawley rats; conditions: rat, in vivo
# caspase-1 = format: cell-based, mouse
# MEK-2 = format: cell-based, mouse
# LF = LF (Bacillus anthracis, UniProt P15917); format: biochemical
# [3] = system: RAW264.7 cells treated with PA + FP59; format: cell-based, mouse
# [4] = system: PA83 binding to RAW264.7 cells; format: cell-based, mouse
# [5] = system: acidic vesicles in RAW264.7 cells; format: cell-based, mouse; conditions: AQ 1 h, 500 ng/ml PA 1 h
# [6] = target: purified human cathepsin B (Homo sapiens, UniProt P07858); format: biochemical; conditions: 4, 8, 16, 33, or 66 μM; without pre-incubation; pH 5.8
# cathepsin B = cathepsin B (Homo sapiens, UniProt P07858); format: binding
# Ebola virus (Kikwit) = experiment: microbe, parasite or virus in culture; format: cell-based; conditions: Zaire ebolavirus, HeLa
# Ebola virus (EBOV) = experiment: microbe, parasite or virus in culture; format: cell-based; conditions: Zaire ebolavirus, HFF-1, 48 h
# SARS CoV Strain Urbani = experiment: microbe, parasite or virus in culture; format: cell-based, SARS coronavirus; conditions: Severe acute respiratory syndrome coronavirus, Vero 76
# [7] = system: Venezuelan equine encephalitis virus (VEEV, Strain TC-83); experiment: microbe, parasite or virus in culture; format: cell-based
# Rabies (Strain Flury) = experiment: microbe, parasite or virus in culture; format: cell-based; conditions: Lyssavirus rabies, BHK-21, 120 h
# Junin (JUNV) = experiment: microbe, parasite or virus in culture; format: cell-based, Junin virus; conditions: Mammarenavirus juninense
# Chikungunya (CHIV) = experiment: microbe, parasite or virus in culture; format: cell-based
# [8] = system: RAW264.7 cells treated with Clostridium difficile toxin B; experiment: cells; format: cell-based; conditions: Mus musculus, RAW264.7, 6 h
# Poliovirus: WM3 = experiment: microbe, parasite or virus in culture; format: cell-based, Poliovirus 3; conditions: Enterovirus C, LLC-MK2
# [9] = system: Herpes Simplex Virus 1 (HSV-1, Strain E-377); experiment: microbe, parasite or virus in culture; format: cell-based; conditions: Human alphaherpesvirus 1, HFF, 72 h
# [10] = system: RAW264.7 cells treated with Cholera toxin; experiment: cells; format: cell-based; conditions: Mus musculus, RAW264.7, 6 h
# [11] = system: RAW264.7 cells treated with Pseudomonas aeruginosa Exotoxin A; experiment: cells; format: cell-based; conditions: Mus musculus, RAW264.7, 6 h
# [12] = system: Human Cytomegalovirus (CMV, Strain AD169); experiment: microbe, parasite or virus in culture; format: cell-based; conditions: Human betaherpesvirus 5, AD169, HFF, 336 h
# [13] = system: Respiratory syncytial virus (RSV): Strain A-2; experiment: microbe, parasite or virus in culture; format: cell-based; conditions: human respiratory syncytial virus, HEp-2
# [14] = system: RAW264.7 cells treated with anthrax lethal toxin (PA + LF)
# HeLa cells = conditions: human
# Ebola = conditions: in vivo; cited from earlier work
# [15] = system: Plasmodium falciparum phosphoethanolamine methyltransferase; conditions: cited from earlier work
# Ebola virus = conditions: cited from earlier work
# in vitro [16] = conditions: human
# in vitro [17] = conditions: African green monkey
# in vitro [18] = conditions: hamster
# in vitro [19] = conditions: rhesus monkey
# endosomal acidification = conditions: cited from earlier work
# in vitro [20] = conditions: human; remark: listed apart in the source
# [21] = system: RAW264.7 cells treated with anthrax lethal toxin (PA + LF); experiment: cells; conditions: Mus musculus, RAW264.7, read-out: EC50, reduction of anthrax toxin-mediated cytotoxicity
# [22] = human, in vivo, cited from earlier work
# [23] = system: host lysosomal cathepsin B; conditions: cited from earlier work
# Chain of LF (P15917 34-809 limits assumed): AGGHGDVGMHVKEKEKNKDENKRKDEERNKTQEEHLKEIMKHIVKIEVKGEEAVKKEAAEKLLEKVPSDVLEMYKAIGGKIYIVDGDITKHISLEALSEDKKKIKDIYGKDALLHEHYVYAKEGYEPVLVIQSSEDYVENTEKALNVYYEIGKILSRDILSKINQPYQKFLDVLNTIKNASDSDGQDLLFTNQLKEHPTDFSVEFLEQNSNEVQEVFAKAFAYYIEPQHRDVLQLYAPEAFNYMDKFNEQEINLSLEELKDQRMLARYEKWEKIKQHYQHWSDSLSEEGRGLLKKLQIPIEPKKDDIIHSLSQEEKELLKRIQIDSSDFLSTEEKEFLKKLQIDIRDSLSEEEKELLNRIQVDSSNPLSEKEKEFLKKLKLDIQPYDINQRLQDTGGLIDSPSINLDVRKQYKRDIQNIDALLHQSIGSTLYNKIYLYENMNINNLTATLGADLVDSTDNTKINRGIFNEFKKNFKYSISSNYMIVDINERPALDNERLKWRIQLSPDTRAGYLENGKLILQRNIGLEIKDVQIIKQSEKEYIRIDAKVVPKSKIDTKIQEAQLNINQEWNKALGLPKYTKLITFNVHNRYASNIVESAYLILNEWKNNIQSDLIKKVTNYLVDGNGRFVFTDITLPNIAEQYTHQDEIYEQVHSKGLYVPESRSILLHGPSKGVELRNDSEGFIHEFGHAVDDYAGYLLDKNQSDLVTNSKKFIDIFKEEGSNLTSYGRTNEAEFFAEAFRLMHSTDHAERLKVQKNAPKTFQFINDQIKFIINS
compound,measurement,setting,value
"CCN(CC)Cc1cc(Nc2ccnc3cc(Cl)ccc23)ccc1O [AQ, Amodiaquine]",inhibition of diphtheria toxin cell killing (multiplex hit),[1],inhibited
same,rats saved after lethal anthrax toxin challenge,[2],40%
same,survival after lethal anthrax toxin challenge,[2],all survived
same,active caspase-1 after LF-PA treatment (FLICA),caspase-1,not detected
same,LF-PA-mediated cleavage of MEK2,MEK-2,completely prevented
same,proteolytic activity of LF on MAPKK peptide (emission at 523 nm),LF,does not block
same,sensitivity of cells to PA + FP59,[3],less sensitive
same,binding of PA83 to cells,[4],did not block
same,proteolytic processing of PA to generate PA63,[4],did not block
same,cell-associated Lysosensor fluorescence (acidic organelles),[5],markedly decreased
same,inhibition of purified human cathepsin B activity,[6],directly inhibit cathepsin B activity in a dose dependent manner
same,binding to cathepsin B (STD difference spectrum),"cathepsin B; 2 mM AQ, 20 μM cathepsin B (100:1)",binding to the enzyme
same,"STD effect, atom H4",cathepsin B; relative to H4 atom (100%),100%
same,"STD effect, atom H5",cathepsin B; relative to H4 atom (100%),97%
same,EC50,Ebola virus (Kikwit),2.4 µM
same,EC50,Ebola virus (Kikwit); 24 h,2 µM
same,EC50,Ebola virus (Kikwit); 48 h,4 µM
same,EC50,Ebola virus (EBOV),2.6 µM
same,EC50,SARS CoV Strain Urbani,2.4 µM
same,EC50,[7],3.2 µM
same,EC50,Rabies (Strain Flury),5.7 µM
same,EC50,Junin (JUNV),16.9 µM
same,EC50,Chikungunya (CHIV),18.4 µM
same,EC50,[8],4.6 µM
same,EC50,Poliovirus: WM3,> 100 µM
same,EC50,[9],> 60 µM
same,EC50,[10],> 66.7 µM
same,EC50,[11],> 66.7 µM
same,EC50,[12],> 60 µM
same,EC50,[13],32 µM
same,"protection of host cells against anthrax toxin killing (cell viability, MTT)",[14],completely protect
same,sensitivity of host cells to PA83 + LF and PA63 + LF,[14],equally reduces sensitivity
same,CC50,HeLa cells,> 50 µM
same,reduction of Ebola mortality risk,Ebola,31%
same,inhibition of Plasmodium falciparum phosphoethanolamine methyltransferase,[15],inhibits
same,Ebola virus pathogenicity in cells,Ebola virus,inhibit Ebola virus pathogenicity in cells
same,CC50,in vitro [16]; CC50,50 µM
same,CC50,in vitro [17],32 µM
same,CC50,in vitro [18],> 10 µM
same,CC50,in vitro [19],> 100 µM
"CCN(CC)CCCC(C)Nc1ccnc2cc(Cl)ccc12 (centres unmarked) [CQ, Chloroquine]",inhibition of diphtheria toxin cell killing (multiplex hit),[1],inhibited
same,inhibition of purified human cathepsin B activity,[6],weaker inhibitors
same,EC50,Ebola virus (Kikwit); 48 h,4.8 µM
same,EC50,Ebola virus (EBOV),2.5 µM
same,endosomal acidification,endosomal acidification,prevent endosomal acidification
same,Ebola virus pathogenicity in cells,Ebola virus,inhibit Ebola virus pathogenicity in cells
same,CC50,in vitro [16]; CC50,100 µM
same,CC50,in vitro [20],70 µM
C=C[C@H]1C[N@@]2CC[C@H]1C[C@@H]2[C@@H](O)c1ccnc2ccccc12 [Cinchonine],"protection of host cells against anthrax toxin killing (cell viability, MTT)",[14],none
"CCNCc1cc(Nc2ccnc3cc(Cl)ccc23)ccc1O [DEAQ, Desethyl-Amodiaquine]",inhibition of purified human cathepsin B activity,[6],directly inhibit cathepsin B activity in a dose dependent manner
same,EC50,Ebola virus (Kikwit); 24 h,2 µM
same,EC50,Ebola virus (Kikwit); 48 h,4 µM
same,EC50,Ebola virus (EBOV),2.1 µM
same,EC50,Junin (JUNV),13.8 µM
same,EC50,Chikungunya (CHIV),17.3 µM
same,EC50,[21],5 µM
same,CC50,in vitro [16]; CC50,50 µM
same,CC50,"in vitro [16]; CC50, 24 h",> 50 µM
same,CC50,"in vitro [16]; CC50, 48 h",> 50 µM
same,terminal half-life,[22]; po,220 to 432 h
same,Cmax (maximal amounts of drug in the blood after oral administration),[22],low μM range
"CCNCCCC(C)Nc1ccnc2cc(Cl)ccc12 (centres unmarked) [DECQ, Desethyl-Chloroquine]",inhibition of purified human cathepsin B activity,[6],weaker inhibitors
same,EC50,Ebola virus (Kikwit); 48 h,7.3 µM
same,EC50,Ebola virus (EBOV),3.2 µM
same,CC50,in vitro [16]; CC50,100 µM
same,CC50,in vitro [20],70 µM
COc1cc(NC(C)CCCN)c2ncccc2c1 (centres unmarked) [Primaquine],"protection of host cells against anthrax toxin killing (cell viability, MTT)",[14],none
C=C[C@H]1C[N@@]2CC[C@H]1C[C@@H]2[C@@H](O)c1ccnc2ccc(OC)cc12 [Quinidine],"protection of host cells against anthrax toxin killing (cell viability, MTT)",[14],none
CA-074,accumulation of PA pores in late endosomes,[23],elevated accumulation
same,cellular sensitivity to LF-PA,[23],reduction of cellular sensitivity
same,release of LF from the late endosomes into the cytoplasm,[23],inability of LF to be released
